Test results: US20260315487A1, “IKK-ALPHA INHIBITORS” (Cancer Research Technology Limited, priority 2023, published 2026)

How the values were obtained:
[1] = molecular target: T1, IKKα (Homo sapiens, UniProt O15111); experiment: activity and selectivity in cells; assay type: cell-based
T1 sequence (O15111 1-745): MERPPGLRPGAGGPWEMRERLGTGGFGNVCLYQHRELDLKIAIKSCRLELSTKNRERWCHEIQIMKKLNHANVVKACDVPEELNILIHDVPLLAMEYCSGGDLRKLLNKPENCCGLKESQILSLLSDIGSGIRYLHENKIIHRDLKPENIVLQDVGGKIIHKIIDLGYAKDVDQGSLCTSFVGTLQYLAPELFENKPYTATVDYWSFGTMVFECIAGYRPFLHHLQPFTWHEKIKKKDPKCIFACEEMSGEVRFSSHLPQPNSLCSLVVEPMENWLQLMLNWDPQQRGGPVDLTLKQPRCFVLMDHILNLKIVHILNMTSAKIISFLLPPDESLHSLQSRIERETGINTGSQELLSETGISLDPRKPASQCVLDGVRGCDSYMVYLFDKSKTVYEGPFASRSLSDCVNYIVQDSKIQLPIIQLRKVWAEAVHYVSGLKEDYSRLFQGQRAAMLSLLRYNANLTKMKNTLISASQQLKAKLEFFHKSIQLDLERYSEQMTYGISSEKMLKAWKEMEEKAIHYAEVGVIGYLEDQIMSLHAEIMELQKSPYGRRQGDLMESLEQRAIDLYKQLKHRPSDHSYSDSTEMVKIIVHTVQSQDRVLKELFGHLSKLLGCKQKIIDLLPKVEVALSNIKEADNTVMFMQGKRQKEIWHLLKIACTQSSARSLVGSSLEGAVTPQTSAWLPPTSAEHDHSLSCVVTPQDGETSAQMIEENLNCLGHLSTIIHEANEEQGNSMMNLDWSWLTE

[2] = molecular target: T2, haspin (Homo sapiens, UniProt Q8TF76); experiment: kinome profiling at 1 μM, haspin; assay type: biochemical
T2 sequence (Q8TF76 1-798): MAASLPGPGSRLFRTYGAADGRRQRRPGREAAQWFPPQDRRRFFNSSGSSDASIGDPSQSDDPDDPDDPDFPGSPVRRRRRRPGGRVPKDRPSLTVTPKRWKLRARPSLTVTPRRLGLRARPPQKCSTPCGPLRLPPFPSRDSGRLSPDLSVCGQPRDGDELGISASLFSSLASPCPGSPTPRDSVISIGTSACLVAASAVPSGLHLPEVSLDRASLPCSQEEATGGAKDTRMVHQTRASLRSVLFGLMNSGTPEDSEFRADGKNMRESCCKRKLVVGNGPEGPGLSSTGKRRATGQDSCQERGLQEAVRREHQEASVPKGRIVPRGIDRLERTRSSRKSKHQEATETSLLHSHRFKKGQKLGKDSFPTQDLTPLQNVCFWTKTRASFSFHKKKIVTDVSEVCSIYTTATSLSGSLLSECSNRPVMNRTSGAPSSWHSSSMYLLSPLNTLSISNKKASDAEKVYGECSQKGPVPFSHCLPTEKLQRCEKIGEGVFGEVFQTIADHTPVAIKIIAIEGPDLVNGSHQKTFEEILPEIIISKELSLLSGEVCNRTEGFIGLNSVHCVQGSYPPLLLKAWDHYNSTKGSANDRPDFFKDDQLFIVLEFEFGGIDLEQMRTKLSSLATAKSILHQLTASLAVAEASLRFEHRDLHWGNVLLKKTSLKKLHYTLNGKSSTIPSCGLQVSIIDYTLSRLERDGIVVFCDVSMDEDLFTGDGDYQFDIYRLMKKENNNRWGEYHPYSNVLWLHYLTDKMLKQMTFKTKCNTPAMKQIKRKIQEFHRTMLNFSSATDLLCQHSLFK
Text: We profiled three compounds from the series across the kinome (FIG. 11). […] To identify the structural drivers for CDK inhibition, we obtained X-ray crystal structures of 5 y and 6 g SU1336 and SU1349 with CDK-2 (FIG. 12A) to potentially identify possible routes towards introducing selectivity for IKKα over the CDK enzymes as well as IKKβ. […] All three derivatives form complexes with CDK2 with the pyrrolo[2,3 -b]pyridine H-bonding to GK+3 (Leu 83 ) and the aminoindazole projected towards the G-loop (FIG. 12A), forming H-bonds with Glu 51 and Lys 33 at the back of the pocket. The adoption of the 4 SU1253 -type orientation, rather than the flipped pose observed in IKKα, is probably facilitated by Tr-stacking between the aminoindazole and the GK residue, which in the CDKs is Phe, rather than Met. […] For 6 g SU1349, the hydrophobic pendant benzyloxy group points out into solvent, but can form face-to-edge Tr-Tr interactions with Phe 82 and His 84 from the hinge. Exchanging the hydrophobic pendant benzyloxy group for the morpholinoethyl-containing substituent in 5 y SU1336 removes any direct interaction with these hinge residues, preferring to sit in a more solvent-exposed position, as befits a basic side chain that will be protonated at physiological pH (FIG. 12B).

[3] = test system: mouse hepatocytes; experiment: mouse hepatocyte clearance (cryopreserved pooled mouse CD1 hepatocytes); assay type: in vitro ADME; conditions: mouse hepatocytes
Description: Pharmacokinetic studies were contracted to Sygnature Discovery Limited. Intrinsic clearance and half life were determined using cryopreserved pooled mouse CD1 hepatocytes. Test compounds were analysed at 1 μM in Williams Media E buffer (0.01 % DMSO) at a cell density of 0.5×10^6 cells mL^−1 . Cells were incubated at 37° C. for one hour with shaking and compound depletion was measured by LC-MS/MS at six timepoints (0.25, 5, 10, 20, 40, and 60 minutes).

[4] = Turbidimetric solubility; assay type: physicochemical

inhibition at 1 µM [2] | SMILES | activity and selectivity in cells, in words [1] | in vitro murine clearance, in words [3] | solubility, in words [4]
> 80% | Nc1n[nH]c2ccc(-c3ccnc4[nH]c(-c5cccc(OCc6ccccc6)c5)cc34)cc12 [5r SU1261, 5-(2-(3-(benzyloxy)phenyl)-1 H-pyrrolo[2,3-b]pyridin-4-yl)-1 H-indazol-3-amine] | activity and selectivity being recapitulated in cells | – | –
– | Nc1n[nH]c2ccc(-c3ccnc4[nH]c(-c5ccnc(OCc6ccccc6)c5)cc34)cc12 [6g SU1349, 5-(2-(2-(Benzyloxy)pyridin-4-yl)-1 H-pyrrolo[2,3-b]pyridin-4-yl)-1 H-indazol-3-amine] | – | sufficiently low in vitro murine clearance | most soluble in the series that displayed selectivity
